Measurements as given in patent US11185100B2 (priority 2014, dated 2021).
Counter-ions that a name gives are not always drawn. Like-named read-outs stand apart in the source and are kept apart here.

Key:
T1R1/T1R3 receptor = T1R1/T1R3 receptor (Felis catus, UniProt E3UMS2); experiment: Activation of T1R1/T1R3 receptor by transmembrane compounds alone or with alanine, IMP, GMP, phenylalanine; HEK293 cells, calcium fluorescence (Example 5); type: cell-based, cat; conditions: for Max resp % of Ala +IMP (0.2 mM): relative to Ala; for Thres +IMP (0.2 mM) / Thres +Alanine (20 mM): threshold concentration; for Activity: Table 18, all transmembrane compounds tested, active / N/A (not active); for Max resp % of IMP +Alanine (20 mM): relative to IMP
Source text: (§1) Methods: HEK293 cells that stably express T1R3 and inducibly express T1R1 were exposed to transmembrane compounds alone or in combination with one or more amino acids and/or one or more nucleotides to activate the umami receptor. Activation of the T1R1/T1R3 receptor was detected by a change in intracellular calcium levels using a calcium sensitive fluorescent dye. Cells that express T1R3 but not T1R1 were used as a control. A FLIPR® Tetra or a FlexStation® 3 was used for data capture.
In each experiment, serial dilutions of up to 10 mM of the transmembrane compound were added to the T1R1/T1R3-expressing cells.

cat T1R1/T1R3 receptor = cat T1R1/T1R3 receptor (Felis catus, UniProt E3UMS2); experiment: cell-based; type: cell-based
Source text: as §1, with “nucleotide derivatives” for “transmembrane compounds”, “dye and/or a luminescent reporter system.” for “dye.”

[1] = in the presence of 20 mM alanine, read-out: EC50- with Ala
[2] = threshold amount that activates the receptor, in the presence of 20 mM alanine
[3] = in the presence of 20 mM alanine, relative to response with IMP

Molecule	Activity (cat T1R1/T1R3 receptor)	Max resp. (ΔF/F) (cat T1R1/T1R3 receptor)	Threshold (cat T1R1/T1R3 receptor) [mM]	Max. resp. % of IMP (cat T1R1/T1R3 receptor; hek293 cells)	further results
COc1cc(C(=O)NC(C(N)=O)c2ccccc2)cc(Cl)c1OC (stereo not drawn) [N-(2-amino-2-oxo-1-phenylethyl)-3-chloro-4,5-dimethoxybenzamide]	–	–	–	–	+IMP (0.2 mM) Max resp % of Ala (T1R1/T1R3 receptor): 49.4 % of Ala; Max resp ΔF/F +IMP (0.2 mM) (T1R1/T1R3 receptor): 0.415 ΔF/F; Max resp % of Ala +IMP (0.2 mM) (T1R1/T1R3 receptor): 49.4%; Thres +IMP (0.2 mM) (T1R1/T1R3 receptor): 0.17 mM; Activity (T1R1/T1R3 receptor): active; activation of T1R1/T1R3 by the transmembrane compound alone (in words) (T1R1/T1R3 receptor; compound alone): failed to activate
COc1ccc(C(=O)NC(C)c2ccccc2)cc1C (stereo not drawn) [4-methoxy-3-methyl-N-(1-phenylethyl)benzamide]	–	–	–	–	+Alanine (20 mM) Max resp % of IMP (T1R1/T1R3 receptor): 41.0 % of IMP; +Alanine (20 mM) Max resp ΔF/F (T1R1/T1R3 receptor): 0.51 ΔF/F; +Alanine (20 mM) Thres (T1R1/T1R3 receptor): 3 mM; Max resp % of IMP +Alanine (20 mM) (T1R1/T1R3 receptor): 41.0%; Thres +Alanine (20 mM) (T1R1/T1R3 receptor): 3 mM; +IMP (0.2 mM) Max resp % of Ala (T1R1/T1R3 receptor): 95.6 % of Ala; Max resp ΔF/F +IMP (0.2 mM) (T1R1/T1R3 receptor): 1.1775 ΔF/F; Max resp % of Ala +IMP (0.2 mM) (T1R1/T1R3 receptor): 95.6%; Thres +IMP (0.2 mM) (T1R1/T1R3 receptor): 0.35 mM; Activity (T1R1/T1R3 receptor): active
CCC(CC)NC(=O)c1ccc2c(c1)OCCO2 [N-(pentan-3-yl)-2,3-dihydrobenzo[b][1,4]dioxine-6-carboxamide]	–	–	–	–	+Alanine (20 mM) Max resp % of IMP (T1R1/T1R3 receptor): 25.2 % of IMP; +Alanine (20 mM) Max resp ΔF/F (T1R1/T1R3 receptor): 0.3125 ΔF/F; +Alanine (20 mM) Thres (T1R1/T1R3 receptor): 0.3 mM; Max resp % of IMP +Alanine (20 mM) (T1R1/T1R3 receptor): 25.2%; Thres +Alanine (20 mM) (T1R1/T1R3 receptor): 0.3 mM; +IMP (0.2 mM) Max resp % of Ala (T1R1/T1R3 receptor): 70.9 % of Ala; Max resp ΔF/F +IMP (0.2 mM) (T1R1/T1R3 receptor): 0.8725 ΔF/F; Max resp % of Ala +IMP (0.2 mM) (T1R1/T1R3 receptor): 70.9%; Thres +IMP (0.2 mM) (T1R1/T1R3 receptor): 0.075 mM; Activity (T1R1/T1R3 receptor): active
CCC(CC)NC(=O)c1ccc(C)c(C)c1 [3,4-dimethyl-N-(pentan-3-yl)benzamide]	–	–	–	–	Max resp % of IMP +Alanine (20 mM) (T1R1/T1R3 receptor): 97.8%; Thres +Alanine (20 mM) (T1R1/T1R3 receptor): 3 mM; Max resp ΔF/F +IMP (0.2 mM) (T1R1/T1R3 receptor): 1.5475 ΔF/F; Max resp % of Ala +IMP (0.2 mM) (T1R1/T1R3 receptor): 125.7%; Thres +IMP (0.2 mM) (T1R1/T1R3 receptor): 0.525 mM; Activity (T1R1/T1R3 receptor): active
O=P(O)(O)OC[C@H]1O[C@@H](n2cnc3c(NC4CCCC4)ncnc32)[C@H](O)[C@@H]1O [N6-Cyclopentyladenosine-5′-O-monophosphate]	active	1.2317 ΔF/F	0.013	127.2 % of IMP	EC50 (cat T1R1/T1R3 receptor; [1]): 50 µM
Nc1ncnc2c1ncn2[C@H]1C[C@H](O)[C@@H](COP(=O)(O)O)O1 [2′-Deoxyadenosine 5′-monophosphate]	active	1.1503 ΔF/F	0.035	118.8 % of IMP	EC50 (cat T1R1/T1R3 receptor; read-out: EC50- with Ala): 140 µM
O=c1[nH]cnc2c1ncn2C1CC(O)C(COP(O)(O)=S)O1 (stereo not drawn) [2′-Deoxyinosine-5′-O-monophosphorothioate]	active	1.0375 ΔF/F	0.025	83.5 % of IMP	EC50 (cat T1R1/T1R3 receptor; read-out: EC50- with Ala): 100 µM
Nc1nc2c(ncn2[C@@H]2O[C@H](COP(=O)(O)OP(=O)(O)OP(=O)(O)O)[C@@H](O)[C@H]2O)c(=O)[nH]1 [Guanosine 5′-triphosphate]	active	1.8075 ΔF/F	0.175	145.5 % of IMP	EC50 (cat T1R1/T1R3 receptor): 700 µM
Nc1nc2c(ncn2[C@@H]2O[C@H](COP(=O)(O)O)[C@@H](O)[C@H]2O)c(=O)[nH]1 [GMP, guanosine monophosphate, reference compound]	–	–	0.008	–	–
Nc1ccn([C@H]2O[C@@H](COP(=O)(O)O)[C@H](O)[C@@H]2O)c(=O)n1 (stereo in doubt) [Cytidine 5′-monophosphate (CMP), Cytidine 5′-monophosphate]	active	–	–	–	–
Nc1ncnc2c1ncn2[C@H]1C[C@H](O)[C@@H](COP(O)(O)=S)O1 [2′-Deoxyadenosine-5′-O-monophosphorothioate]	active	1.0375 ΔF/F	0.015	83.5 % of IMP	EC50 (cat T1R1/T1R3 receptor; read-out: EC50- with Ala): 60 µM
CNc1ccccc1C(=O)OC1C[C@H](n2cnc3c(=O)[nH]c(N)nc32)O[C@@H]1COP(=O)(O)O (stereo in doubt) [2′-Deoxy-3′-O-(N′-methylanthraniloyl) guanosine-5′-O-monophosphate]	active	0.295 ΔF/F	0.0025	23.7 % of IMP	EC50 (cat T1R1/T1R3 receptor; [1]): 10 µM
O=P(O)(O)OC[C@H]1O[C@@H](n2cnc3c(Cl)ncnc32)[C@H](O)[C@@H]1O [6-chloropurineriboside-5′-O-monophosphate]	–	–	–	–	EC50 (cat T1R1/T1R3 receptor; [1]): 2 µM; Threshold (cat T1R1/T1R3 receptor; [2]): 0.0005 mM
Nc1nc2c(nc(Br)n2[C@@H]2O[C@H](COP(=O)(O)O)[C@@H](O)[C@H]2O)c(=O)[nH]1 [8-Bromoguanosine-5′-O-monophosphate]	active	0.375 ΔF/F	1	30.2 % of IMP	–
Nc1nc2c(ncn2[C@@H]2O[C@H](COP(=O)(O)O)[C@@H](O)[C@H]2O)c(=S)[nH]1 [6-thioguanosine-5′-O-monophosphate]	–	–	0.0002	–	–
2′-/3′-O-(N′-Methyl-anthraniloyl) adenosine-5′-O-monophosphate sodium salt	–	–	–	–	Max resp. (ΔF/F) (cat T1R1/T1R3 receptor; in the presence of 20 mM alanine): 1.915 ΔF/F; EC50 (cat T1R1/T1R3 receptor; [1]): 10 µM; Max. resp. % of IMP (cat T1R1/T1R3 receptor; [3]): 154.1 % of IMP; Threshold (cat T1R1/T1R3 receptor; [2]): 0.0025 mM
Nc1nc2c(ncn2[C@H]2C[C@H](O)[C@@H](COP(=O)(O)O)O2)c(=O)[nH]1 [2′-Deoxyguanosine 5′-monophosphate]	–	–	–	–	Activity (cat T1R1/T1R3 receptor; +Alanine (20 mM)): active; Max. resp. % of IMP (cat T1R1/T1R3 receptor; [3]): 61.2 % of IMP; Threshold (cat T1R1/T1R3 receptor; [2]): 0.060 mM
CNc1ccccc1C(=O)O[C@H]1C[C@H](n2cnc3c(N)ncnc32)O[C@@H]1COP(=O)(O)O [2′-Deoxy-3′-O-(N′-methylanthraniloyl)adenosine-5′-O-monophosphate]	active	0.3975 ΔF/F	0.0025	32.0 % of IMP	–
Nc1ncnc2c1nc(Cl)n2[C@@H]1O[C@H](COP(=O)(O)O)C(O)C1O (stereo partly drawn) [8-Chloroadenosine-5′-O-monophosphate]	–	0.79 ΔF/F	0.2	63.6 % of IMP	Activity (cat T1R1/T1R3 receptor; +Alanine (20 mM)): active
Nc1ncnc2c1ncn2[C@@H]1O[C@H](COP(=O)(O)O)[C@@H](O)[C@H]1O [Adenosine 5′-monophosphate disodium salt, reference compound]	active	1.5470 ΔF/F	0.003	159.8 % of IMP	–
Nc1ncnc2c1ncn2[C@@H]1O[C@H](COP(O)(O)=S)[C@@H](O)[C@H]1O [Adenosine-5′-O-monophosphorothioate]	–	1.2435 ΔF/F	0.003	128.4 % of IMP	EC50 (cat T1R1/T1R3 receptor; read-out: EC50- with Ala): 11 µM
CNc1ccccc1C(=O)O[C@@H]1[C@H](O)[C@@H](COP(=O)(O)O)O[C@H]1n1cnc2c(=O)[nH]c(N)nc21	–	–	–	–	Activity (cat T1R1/T1R3 receptor; +Alanine (20 mM)): active
Nc1nc2c(ncn2[C@@H]2O[C@H](COP(=O)(O)OP(=O)(O)O)[C@@H](O)[C@H]2O)c(=O)[nH]1 [Guanosine 5′-diphosphate sodium salt, Guanosine 5′-diphosphate]	active	1.7550 ΔF/F	0.050	141.2 % of IMP	EC50 (cat T1R1/T1R3 receptor; read-out: EC50- with Ala): 200 µM
Nc1ncnc2c1ncn2C1OC(COP(=O)(O)O)C(OP(=O)(O)O)C1O (stereo not drawn) [Adenosine 3′,5′-diphosphate sodium salt, adenosine 3′, 5′ diphosphate sodium salt]	active	0.9578 ΔF/F	0.00025	98.9 % of IMP	EC50 (cat T1R1/T1R3 receptor; read-out: EC50- with Ala): 1 µM
Nc1nc2c(ncn2[C@H]2CC(O)[C@@H](COP(O)(O)=S)O2)c(=O)[nH]1 (stereo in doubt) [2′-Deoxyguanosine-5′-O-monophosphorothioate]	active	1.0775 ΔF/F	0.0025	86.7 % of IMP	EC50 (cat T1R1/T1R3 receptor): 10 µM
O=P(O)(O)OC[C@H]1O[C@@H](n2cnc3c(Cl)ncnc32)C(O)C1O (stereo partly drawn) [6-Chloropurineriboside-5′-O-monophosphate]	active	1.5325 ΔF/F	0.0005	123.3 % of IMP	EC50 (cat T1R1/T1R3 receptor; [1]): 2 µM
Nc1nc2c(ncn2[C@H]2C[C@H](O)[C@@H](COP(O)(O)=S)O2)c(=O)[nH]1 [2′-Deoxyguanosine-5′-O-monophosphorothioate]	active	0.8446 ΔF/F	0.005	87.2 % of IMP	EC50 (cat T1R1/T1R3 receptor; read-out: EC50- with Ala): 20 µM
